Experimental data reported in patent publication US20250144067A1, “PERSONALIZED STARVATION THERAPY FOR CANCER” (Faeth Therapeutics, Inc., priority 2021, published 2025).
Counter-ions that a name gives are not always drawn. Like-named read-outs stand apart in the source and are kept apart here.

Legend:
[1] = tested on: NCI-H292 lung cancer cells; experiment: FDA drug screening, complete media vs cholesterol-free media without statin (TABLE 1); format: cell-based, human
[2] = tested on: NCI-H292 lung cancer cells; experiment: FDA drug screening, complete media vs cholesterol-free media with simvastatin (TABLE 2); format: cell-based, human
[3] = Complete minus Cholesterol-free, […]
[4] = NCI-H292 cells, cholesterol-free media without statin
[5] = NCI-H292 cells, FDA drug library screen, cholesterol-free media with simvastatin 0.04 μM
[6] = NCI-H292 cells, FDA drug library screen, complete media
[7] = complete media vs cholesterol-free media + simvastatin (0.04 μM), […]
[8] = NCI-H292 cells, cholesterol-free media without statin, FDA drug library screen
[9] = NCI-H292 cells, complete media, FDA drug library screen
[10] = complete vs cholesterol-free media, >0 enhanced anti-cancer activity, about 0 neutral, <0 antagonist
[11] = NCI-H292 cells, FDA library drug in cholesterol-free media with simvastatin 0.04 μM
[12] = NCI-H292 cells, FDA library drug in complete media
[13] = complete media vs cholesterol-free media + simvastatin (0.04 μM), >0 enhanced anti-cancer activity, about 0 neutral, <0 antagonist
[14] = Complete minus Cholesterol-free, >0 enhanced anti-cancer activity, about 0 neutral, <0 antagonist
[15] = NCI-H292 cells, drug in cholesterol-free media with simvastatin 0.04 μM
[16] = NCI-H292 cells, drug in complete media
[17] = complete media minus cholesterol-free media + simvastatin, >0 enhanced anti-cancer activity, about 0 neutral, <0 antagonist
[18] = NCI-H292 cells, FDA drug library screen, cholesterol-free media without statin
[19] = complete vs cholesterol-free media, greater than 0 enhanced anti-cancer activity, about 0 neutral, below 0 antagonists
[20] = NCI-H292 cells, cholesterol-free media with simvastatin 0.04 μM, cell growth value in FDA drug screen
[21] = NCI-H292 cells, complete media, cell growth value in FDA drug screen
[22] = Complete minus Cholesterol-free, greater than 0 enhanced anti-cancer activity, about 0 neutral, below 0 antagonist

Row | Compound | Cholesterol-free [1, 4] | Complete ([1]; NCI-H292 cells, complete media) | Cholesterol-free media + simvastatin (0.04 μM) [2, 5] | Complete Media [2, 6] | Cholesterol-free [1, 8] | Complete [1, 9] | Difference [2, 13] | Difference [1, 14] | further results
1 | CC(O)C(=O)O.CCOc1ccc2nc3cc(N)ccc3c(N)c2c1 [Ethacridine (lactate)] | 0.3206 | 0.04483 | 0.2653 | 0.1668 | – | – | – | – | Difference [1, 3]: −0.28; Difference [2, 7]: −0.10
2 | NCCS(=O)(=O)O [Taurine] | – | – | – | – | 1.192 | 1.309 | −0.61 | – | Difference [1, 10]: 0.12; Cholesterol-free media + simvastatin (0.04 μM) [2, 11]: 1.971; Complete Media [2, 12]: 1.363
3 | CCCN(CCC)C(=O)C(CCC(=O)O)NC(=O)c1ccccc1 (centres unmarked) [Proglumide (sodium)] | 1.258 | 0.9781 | – | – | – | – | −0.25 | −0.28 | Cholesterol-free media + simvastatin (0.04 μM) [2, 15]: 1.215; Complete Media [2, 16]: 0.9616
4 | Imatinib (Mesylate) | – | – | 1.089 | 0.9411 | 0.5677 | 1.017 | −0.15 | – | Difference [1, 10]: 0.45
5 | CC(C)(C)NC(=O)[C@H]1CC[C@H]2[C@@H]3CC=C4C=C(C(=O)O)CC[C@]4(C)[C@H]3CC[C@]12C [Epristeride] | – | – | 0.7018 | 0.8964 | 0.5663 | 1.029 | – | – | Difference [1, 10]: 0.46; Difference [2, 17]: 0.19
6 | NC(=O)[C@@H]1CC[C@@H]2CN1C(=O)N2OS(=O)(=O)O [Avibactam (sodium hydrate)] | – | – | 1.124 | 1.029 | 0.6447 | 0.883 | −0.09 | – | Difference [1, 10]: 0.24
7 | Almotriptan (malate) | – | – | – | – | – | – | – | – | Difference [1, 3]: −0.08; Cholesterol-free [1, 18]: 0.8422; Complete [1, 6]: 0.7605; Cholesterol-free media + simvastatin (0.04 μM) [2, 11]: 1.642; Difference [2, 7]: −0.54
8 | O=C(O)[C@H]1/C(=C/CO)O[C@@H]2CC(=O)N21 [Clavulanate (lithium)] | – | – | – | – | 1.545 | 1.617 | −0.59 | 0.07 | Cholesterol-free media + simvastatin (0.04 μM) [2, 11]: 1.974; Complete Media [2, 12]: 1.387
9 | Cc1cccc(C(C)c2cnc[nH]2)c1C (centres unmarked) [Medetomidine (hydrochloride)] | 1.452 | 1.139 | – | – | – | – | – | – | Difference [1, 19]: −0.31; Cholesterol-free media + simvastatin (0.04 μM) [2, 20]: 0.8752; Complete Media [2, 21]: 0.9447; Difference [2, 17]: 0.07
10 | C=CC(=O)Nc1cc(Nc2nccc(-c3cn(C4CC4)c4ccccc34)n2)c(OC)cc1N(C)CCN(C)C [Almonertinib (hydrochloride)] | – | – | – | – | 0.4284 | 0.3618 | – | −0.07 | Cholesterol-free media + simvastatin (0.04 μM) [2, 20]: 0.6861; Complete Media [2, 21]: 0.7198; Difference [2, 17]: 0.03
11 | CN1CC2c3ccccc3Oc3ccc(Cl)cc3C2C1 (centres unmarked) [Asenapine] | 1.636 | 1.303 | – | – | – | – | −0.22 | – | Difference [1, 19]: −0.33; Cholesterol-free media + simvastatin (0.04 μM) [2, 15]: 0.918; Complete Media [2, 16]: 0.7002
12 | C/C(O)=C(\C#N)C(=O)Nc1ccc(C(F)(F)F)cc1 [Teriflunomide] | – | – | – | – | – | – | −0.75 | – | Difference [1, 22]: −0.16; Cholesterol-free [1, 18]: 1.092; Complete [1, 6]: 0.9318; Cholesterol-free media + simvastatin (0.04 μM) [2, 11]: 1.712; Complete Media [2, 12]: 0.9665
13 | Cn1nnc2c(C(N)=O)ncn2c1=O [Temozolomide] | 1.265 | 0.9503 | 0.984 | 0.8242 | – | – | −0.16 | – | Difference [1, 19]: −0.31
14 | CCC(C)(Oc1ccc(C2(c3ccc(OC(C)(CC)C(=O)O)cc3)CCCCC2)cc1)C(=O)O (centres unmarked) [Clinofibrate] | 1.347 | 1.007 | – | – | – | – | −0.26 | – | Difference [1, 19]: −0.34; Cholesterol-free media + simvastatin (0.04 μM) [2, 15]: 1.342; Complete Media [2, 16]: 1.081
15 | CNCCCC12CCC(c3ccccc31)c1ccccc12 [Maprotiline (hydrochloride)] | 1.347 | 0.9995 | – | – | – | – | −0.29 | – | Difference [1, 19]: −0.35; Cholesterol-free media + simvastatin (0.04 μM) [2, 11]: 1.215; Complete Media [2, 12]: 0.924
16 | NC(=O)NS(=O)(=O)c1ccc(N)cc1 [Sulfacarbamide] | – | – | 0.9379 | 1.144 | 0.9085 | 0.9465 | – | 0.04 | Difference [2, 17]: 0.21
17 | Nc1c(Br)cc(Br)cc1CN[C@H]1CC[C@H](O)CC1 [Ambroxol] | 1.134 | 0.9121 | 1.121 | 0.9656 | – | – | −0.16 | −0.22 | –
18 | Chloramphenicol succinate (sodium) | – | – | – | – | – | – | – | – | Cholesterol-free [1]: 0.9119; Complete [1]: 0.8447; Difference [1]: −0.07; Cholesterol-free media + simvastatin (0.04 μM) [2]: 0.9173; Complete Media [2]: 0.8083; Difference [2]: −0.11
19 | C#CCC(Cc1cnc2nc(N)nc(N)c2n1)c1ccc(C(=O)N[C@@H](CCC(=O)O)C(=O)O)cc1 (some centres unmarked) [Pralatrexate] | – | – | 0.194 | 0.0957 | 0.04874 | 0.07794 | −0.10 | 0.03 | –
20 | NC(=NCc1ccccc1)NC(=O)c1nc(Cl)c(N)nc1N [Benzamil (hydrochloride)] | 0.9643 | 0.6686 | – | – | – | – | – | −0.30 | Cholesterol-free media + simvastatin (0.04 μM) ([2]; NCI-H292 cells, cholesterol-free media with simvastatin 0.04 μM, FDA drug library screen (TABLE 2)): 0.8193; Complete Media ([2]; NCI-H292 cells, complete media, FDA drug library screen (TABLE 2)): 0.8118; Difference ([2]; complete media minus cholesterol-free media + simvastatin (0.04 μM), >0 enhanced anti-cancer activity, about 0 neutral, <0 antagonist): −0.01
21 | CN1CCN(c2c(F)cc3c(=O)c(C(=O)O)cn4c3c2SCC4)CC1 [Rufloxacin hydrochloride] | 1.291 | 1.016 | 0.949 | 1.098 | – | – | – | −0.28 | Difference [2, 17]: 0.15
22 | O=c1[nH]c2ccccc2n1CCN1CCN(c2cccc(C(F)(F)F)c2)CC1 [Flibanserin] | 1.364 | 0.9648 | – | – | – | – | – | – | Difference [1, 19]: −0.40; Cholesterol-free media + simvastatin (0.04 μM) [2, 20]: 1.01; Complete Media [2, 21]: 1.089; Difference [2, 17]: 0.08
23 | CC(C)(C)C(=O)Oc1ccc(S(=O)(=O)Nc2ccccc2C(=O)NCC(=O)O)cc1 [Sivelestat] | – | – | – | – | – | – | – | – | Difference [1, 22]: −0.16; Cholesterol-free [1, 18]: 1.175; Complete [1, 6]: 1.017; Cholesterol-free media + simvastatin (0.04 μM) [2, 20]: 0.7952; Complete Media [2, 21]: 0.866; Difference [2, 17]: 0.07
24 | C=CCCCCCCCCC(=O)O [10-Undecenoic acid] | – | – | – | – | 0.9796 | 0.99 | −0.30 | 0.01 | Cholesterol-free media + simvastatin (0.04 μM) [2, 11]: 1.07; Complete Media [2, 12]: 0.7648
